# Assay results from PMC6409085, “Three odorant-binding proteins are involved in the behavioral response of Sogatella furcifera to rice plant volatiles” (PeerJ, 2019).
# Several values for one entry are separate records, joined by “and”; a condition that tells them apart may be missing. Equal values may be shown once.
# Legend:
# [1] = target: SfurOBP1 (Sogatella furcifera, UniProt V5T8N5); test: biochemical; format: binding; details: for Fluorescence competitive binding assay, fluorescence intensity: OBP1, three replicate columns
# Sequence of SfurOBP1 (V5T8N5 entry or part of it): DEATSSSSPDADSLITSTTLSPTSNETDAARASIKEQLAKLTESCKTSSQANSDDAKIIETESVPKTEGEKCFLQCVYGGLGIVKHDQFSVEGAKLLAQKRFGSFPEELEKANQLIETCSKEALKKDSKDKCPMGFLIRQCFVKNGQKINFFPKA
# How it was run: (§1)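 Fluorescence competitive binding used 2.0 µM SfurOBP and 2.0 µM 1-NPN reporter in 50 mM Tris-HCl, pH 7.4, with odorants at 2-20 µM. Fluorescence was read 2 min after adding the odorant (excitation 337 nm, emission 390-490 nm), in triplicate. Ki was calculated from IC50 as IC50/(1 + [1-NPN]/K1-NPN).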
# [2] = target: SfurOBP11 (Sogatella furcifera, UniProt V5T6E3); test: biochemical; format: binding
# Sequence of SfurOBP11 (V5T6E3 entry or part of it): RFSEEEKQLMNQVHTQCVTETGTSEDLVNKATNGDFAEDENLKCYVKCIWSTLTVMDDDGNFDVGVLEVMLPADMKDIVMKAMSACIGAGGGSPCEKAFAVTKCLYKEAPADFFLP
# How it was run: as §1
# [3] = target: SfurOBP2 (Sogatella furcifera, UniProt V5T759); test: biochemical; format: binding
# Sequence of SfurOBP2 (V5T759 entry or part of it): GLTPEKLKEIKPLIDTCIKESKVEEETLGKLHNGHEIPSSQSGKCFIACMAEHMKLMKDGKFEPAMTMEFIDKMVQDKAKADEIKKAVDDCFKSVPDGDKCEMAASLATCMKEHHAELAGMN
# How it was run: as §1
# [4] = target: SfurOBP3 (Sogatella furcifera, UniProt V5T818); test: biochemical; format: binding; details: for Fluorescence competitive binding assay, fluorescence intensity: OBP3, three replicate columns
# Sequence of SfurOBP3 (V5T818 entry or part of it): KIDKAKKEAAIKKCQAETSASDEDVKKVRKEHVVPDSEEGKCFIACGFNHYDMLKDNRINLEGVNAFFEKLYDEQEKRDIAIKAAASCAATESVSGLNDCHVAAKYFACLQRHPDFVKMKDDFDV
# How it was run: as §1
# [5] = test system: S. furcifera adults; test: Y-tube olfactometer behavioral trials; format: in vivo, Sogatella furcifera; details: odorant 50 µL/L vs hexane; adults
# How it was run: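 Single S. furcifera adults (2 days post-emergence, starved 0.5 h) chose between odorant (100 µL of 50 µL/L on filter paper) and hexane control in a glass Y-tube, charcoal-filtered humidified air 300 mL/min per arm, 25 ± 1 °C, 50% RH. Choice scored if insect passed half an arm and stayed >1 min within 10 min; 45 insects per compound, chi-squared test.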
structure (smiles),measurement,setting,value
CCCCCCC=CCO [2-nonen-1-ol],"Fluorescence competitive binding assay, fluorescence intensity",[1]; ligand concentration 2 (μM),6522 and 6473 and 6498
same,"Fluorescence competitive binding assay, fluorescence intensity",[1]; ligand concentration 4 (μM),5655 and 6432 and 6908
same,"Fluorescence competitive binding assay, fluorescence intensity",[1]; ligand concentration 6 (μM),8453 and 7604 and 7714
same,"Fluorescence competitive binding assay, fluorescence intensity",[1]; ligand concentration 8 (μM),8297 and 7919 and 6967
same,"Fluorescence competitive binding assay, fluorescence intensity",[1]; ligand concentration 10 (μM),6386 and 8717 and 6918
same,"Fluorescence competitive binding assay, fluorescence intensity",[1]; ligand concentration 12 (μM),6193 and 7108 and 6694
same,"Fluorescence competitive binding assay, fluorescence intensity",[1]; ligand concentration 14 (μM),6199 and 6820 and 8443
same,"Fluorescence competitive binding assay, fluorescence intensity",[1]; ligand concentration 16 (μM),5457 and 5916 and 5787
same,"Fluorescence competitive binding assay, fluorescence intensity",[1]; ligand concentration 18 (μM),6097 and 9706 and 8104
same,"Fluorescence competitive binding assay, fluorescence intensity",[1]; ligand concentration 20 (μM),6801 and 6290 and 6295
same,IC50,"[1]; SfurOBP1, protein and 1-NPN both 2.0 µM, competitor 2-20 µM, read-out: IC50",> 20 µM
same,IC50,"[2]; SfurOBP11, protein and 1-NPN both 2.0 µM, competitor 2-20 µM, read-out: IC50",> 20 µM
same,"Fluorescence intensity, fluorescence competitive binding assay, OBP11","[2]; ligand concentration 2, replicate 1",37643
same,"Fluorescence intensity, fluorescence competitive binding assay, OBP11","[2]; ligand concentration 2, replicate 2",35290
same,"Fluorescence intensity, fluorescence competitive binding assay, OBP11","[2]; ligand concentration 2, replicate 3",44360
same,"Fluorescence intensity, fluorescence competitive binding assay, OBP11","[2]; ligand concentration 4, replicate 1",35859
same,"Fluorescence intensity, fluorescence competitive binding assay, OBP11","[2]; ligand concentration 4, replicate 2",39342
same,"Fluorescence intensity, fluorescence competitive binding assay, OBP11","[2]; ligand concentration 4, replicate 3",34938
same,"Fluorescence intensity, fluorescence competitive binding assay, OBP11","[2]; ligand concentration 6, replicate 1",34140
same,"Fluorescence intensity, fluorescence competitive binding assay, OBP11","[2]; ligand concentration 6, replicate 2",38169
same,"Fluorescence intensity, fluorescence competitive binding assay, OBP11","[2]; ligand concentration 6, replicate 3",36155
same,"Fluorescence intensity, fluorescence competitive binding assay, OBP11","[2]; ligand concentration 8, replicate 1",32705
same,"Fluorescence intensity, fluorescence competitive binding assay, OBP11","[2]; ligand concentration 8, replicate 2",34472
same,"Fluorescence intensity, fluorescence competitive binding assay, OBP11","[2]; ligand concentration 8, replicate 3",34378
same,"Fluorescence intensity, fluorescence competitive binding assay, OBP11","[2]; ligand concentration 10, replicate 1",32486
same,"Fluorescence intensity, fluorescence competitive binding assay, OBP11","[2]; ligand concentration 10, replicate 2",33152
same,"Fluorescence intensity, fluorescence competitive binding assay, OBP11","[2]; ligand concentration 10, replicate 3",33818
same,"Fluorescence intensity, fluorescence competitive binding assay, OBP11","[2]; ligand concentration 12, replicate 1",28113
same,"Fluorescence intensity, fluorescence competitive binding assay, OBP11","[2]; ligand concentration 12, replicate 2",29890
same,"Fluorescence intensity, fluorescence competitive binding assay, OBP11","[2]; ligand concentration 12, replicate 3",30957
same,"Fluorescence intensity, fluorescence competitive binding assay, OBP11","[2]; ligand concentration 14, replicate 1",27880
same,"Fluorescence intensity, fluorescence competitive binding assay, OBP11","[2]; ligand concentration 14, replicate 2",28227
same,"Fluorescence intensity, fluorescence competitive binding assay, OBP11","[2]; ligand concentration 14, replicate 3",28574
same,"Fluorescence intensity, fluorescence competitive binding assay, OBP11","[2]; ligand concentration 16, replicate 1",24059
same,"Fluorescence intensity, fluorescence competitive binding assay, OBP11","[2]; ligand concentration 16, replicate 2",25490
same,"Fluorescence intensity, fluorescence competitive binding assay, OBP11","[2]; ligand concentration 16, replicate 3",25182
same,"Fluorescence intensity, fluorescence competitive binding assay, OBP11","[2]; ligand concentration 18, replicate 1",30643
same,"Fluorescence intensity, fluorescence competitive binding assay, OBP11","[2]; ligand concentration 18, replicate 2",29725
same,"Fluorescence intensity, fluorescence competitive binding assay, OBP11","[2]; ligand concentration 18, replicate 3",31591
same,"Fluorescence intensity, fluorescence competitive binding assay, OBP11","[2]; ligand concentration 20, replicate 1",30015
same,"Fluorescence intensity, fluorescence competitive binding assay, OBP11","[2]; ligand concentration 20, replicate 2",28576
same,"Fluorescence intensity, fluorescence competitive binding assay, OBP11","[2]; ligand concentration 20, replicate 3",24669
same,IC50,"[3]; SfurOBP2, protein and 1-NPN both 2.0 µM, competitor 2-20 µM, read-out: IC50",> 20 µM
same,"Fluorescence competitive binding assay, OBP2 (raw fluorescence reading)","[3]; ligand concentration 2 (unit not given), replicate column 1 of 3",23899
same,"Fluorescence competitive binding assay, OBP2 (raw fluorescence reading)","[3]; ligand concentration 2 (unit not given), replicate column 2 of 3",21462
same,"Fluorescence competitive binding assay, OBP2 (raw fluorescence reading)","[3]; ligand concentration 2 (unit not given), replicate column 3 of 3",22264
same,"Fluorescence competitive binding assay, OBP2 (raw fluorescence reading)","[3]; ligand concentration 4 (unit not given), replicate column 1 of 3",25374
same,"Fluorescence competitive binding assay, OBP2 (raw fluorescence reading)","[3]; ligand concentration 4 (unit not given), replicate column 2 of 3",25147
same,"Fluorescence competitive binding assay, OBP2 (raw fluorescence reading)","[3]; ligand concentration 4 (unit not given), replicate column 3 of 3",24357
same,"Fluorescence competitive binding assay, OBP2 (raw fluorescence reading)","[3]; ligand concentration 6 (unit not given), replicate column 1 of 3",25139
same,"Fluorescence competitive binding assay, OBP2 (raw fluorescence reading)","[3]; ligand concentration 6 (unit not given), replicate column 2 of 3",24429
same,"Fluorescence competitive binding assay, OBP2 (raw fluorescence reading)","[3]; ligand concentration 6 (unit not given), replicate column 3 of 3",24096
same,"Fluorescence competitive binding assay, OBP2 (raw fluorescence reading)","[3]; ligand concentration 8 (unit not given), replicate column 1 of 3",22380
same,"Fluorescence competitive binding assay, OBP2 (raw fluorescence reading)","[3]; ligand concentration 8 (unit not given), replicate column 2 of 3",22288
same,"Fluorescence competitive binding assay, OBP2 (raw fluorescence reading)","[3]; ligand concentration 8 (unit not given), replicate column 3 of 3",21248
same,"Fluorescence competitive binding assay, OBP2 (raw fluorescence reading)","[3]; ligand concentration 10 (unit not given), replicate column 1 of 3",20934
same,"Fluorescence competitive binding assay, OBP2 (raw fluorescence reading)","[3]; ligand concentration 10 (unit not given), replicate column 2 of 3",21198
same,"Fluorescence competitive binding assay, OBP2 (raw fluorescence reading)","[3]; ligand concentration 10 (unit not given), replicate column 3 of 3",20778
same,"Fluorescence competitive binding assay, OBP2 (raw fluorescence reading)","[3]; ligand concentration 12 (unit not given), replicate column 1 of 3",19074
same,"Fluorescence competitive binding assay, OBP2 (raw fluorescence reading)","[3]; ligand concentration 12 (unit not given), replicate column 2 of 3",19350
same,"Fluorescence competitive binding assay, OBP2 (raw fluorescence reading)","[3]; ligand concentration 12 (unit not given), replicate column 3 of 3",18397
same,"Fluorescence competitive binding assay, OBP2 (raw fluorescence reading)","[3]; ligand concentration 14 (unit not given), replicate column 1 of 3",16875
same,"Fluorescence competitive binding assay, OBP2 (raw fluorescence reading)","[3]; ligand concentration 14 (unit not given), replicate column 2 of 3",19948
same,"Fluorescence competitive binding assay, OBP2 (raw fluorescence reading)","[3]; ligand concentration 14 (unit not given), replicate column 3 of 3",17641
same,"Fluorescence competitive binding assay, OBP2 (raw fluorescence reading)","[3]; ligand concentration 16 (unit not given), replicate column 1 of 3",16016
same,"Fluorescence competitive binding assay, OBP2 (raw fluorescence reading)","[3]; ligand concentration 16 (unit not given), replicate column 2 of 3",16681
same,"Fluorescence competitive binding assay, OBP2 (raw fluorescence reading)","[3]; ligand concentration 16 (unit not given), replicate column 3 of 3",14367
same,"Fluorescence competitive binding assay, OBP2 (raw fluorescence reading)","[3]; ligand concentration 18 (unit not given), replicate column 1 of 3",17119
same,"Fluorescence competitive binding assay, OBP2 (raw fluorescence reading)","[3]; ligand concentration 18 (unit not given), replicate column 2 of 3",16819
same,"Fluorescence competitive binding assay, OBP2 (raw fluorescence reading)","[3]; ligand concentration 18 (unit not given), replicate column 3 of 3",15979
same,"Fluorescence competitive binding assay, OBP2 (raw fluorescence reading)","[3]; ligand concentration 20 (unit not given), replicate column 1 of 3",16047
same,"Fluorescence competitive binding assay, OBP2 (raw fluorescence reading)","[3]; ligand concentration 20 (unit not given), replicate column 2 of 3",15694
same,"Fluorescence competitive binding assay, OBP2 (raw fluorescence reading)","[3]; ligand concentration 20 (unit not given), replicate column 3 of 3",13725
same,"Fluorescence competitive binding assay, fluorescence intensity",[4]; ligand concentration 2,69777 and 64977 and 64069
same,"Fluorescence competitive binding assay, fluorescence intensity",[4]; ligand concentration 4,69897 and 66654 and 59281
same,"Fluorescence competitive binding assay, fluorescence intensity",[4]; ligand concentration 6,72805 and 63593 and 63408
same,"Fluorescence competitive binding assay, fluorescence intensity",[4]; ligand concentration 8,68908 and 64822 and 61456
same,"Fluorescence competitive binding assay, fluorescence intensity",[4]; ligand concentration 10,63843 and 54968 and 55110
same,"Fluorescence competitive binding assay, fluorescence intensity",[4]; ligand concentration 12,59021 and 51372 and 52724
same,"Fluorescence competitive binding assay, fluorescence intensity",[4]; ligand concentration 14,52703 and 46147 and 50940
same,"Fluorescence competitive binding assay, fluorescence intensity",[4]; ligand concentration 16,47036 and 45518 and 44907
same,"Fluorescence competitive binding assay, fluorescence intensity",[4]; ligand concentration 18,49989 and 48773 and 43710
same,"Fluorescence competitive binding assay, fluorescence intensity",[4]; ligand concentration 20,40319 and 40656 and 42300
same,IC50,"[4]; SfurOBP3, protein and 1-NPN both 2.0 µM, competitor 2-20 µM, read-out: IC50",> 20 µM
same,number of insects choosing hexane arm,[5],12
same,number of insects choosing volatilies arm,[5],18
same,number of insects failed (no choice),[5],10
